Measured values published in ChEMBL document CHEMBL1128847, “Inhibition of matrix metalloproteinases by N-carboxyalkyl peptides containing extended alkyl residues At P1'” (Bioorg Med Chem Lett, 1995).

Experiments:
[1] = biological target: 72 kDa type IV collagenase (Homo sapiens, UniProt P08253); test: Inhibition of human gelatinase A (MMP-2)
Stromelysin-1 = Stromelysin-1 (Homo sapiens, UniProt P08254)
Description: Inhibition of human fibroblast stromelysin (MMP-3)

Interstitial collagenase = biological target: T1, Interstitial collagenase (Homo sapiens, UniProt P03956); test: Inhibition of human fibroblast collagenase (MMP-1)
T1 sequence (P03956 whole entry): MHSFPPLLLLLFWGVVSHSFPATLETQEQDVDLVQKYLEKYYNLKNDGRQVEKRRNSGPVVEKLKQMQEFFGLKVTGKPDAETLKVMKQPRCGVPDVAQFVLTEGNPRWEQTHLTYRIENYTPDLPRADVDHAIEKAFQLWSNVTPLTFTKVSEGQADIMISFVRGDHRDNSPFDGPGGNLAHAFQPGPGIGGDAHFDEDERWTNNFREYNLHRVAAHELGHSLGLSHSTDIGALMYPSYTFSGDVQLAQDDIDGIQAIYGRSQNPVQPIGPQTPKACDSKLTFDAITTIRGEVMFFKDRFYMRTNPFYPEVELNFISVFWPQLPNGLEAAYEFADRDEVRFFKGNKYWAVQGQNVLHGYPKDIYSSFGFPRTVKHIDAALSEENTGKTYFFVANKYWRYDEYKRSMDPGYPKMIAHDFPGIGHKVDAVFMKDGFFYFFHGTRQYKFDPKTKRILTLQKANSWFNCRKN

Chain of 72 kDa type IV collagenase (P08253 whole entry): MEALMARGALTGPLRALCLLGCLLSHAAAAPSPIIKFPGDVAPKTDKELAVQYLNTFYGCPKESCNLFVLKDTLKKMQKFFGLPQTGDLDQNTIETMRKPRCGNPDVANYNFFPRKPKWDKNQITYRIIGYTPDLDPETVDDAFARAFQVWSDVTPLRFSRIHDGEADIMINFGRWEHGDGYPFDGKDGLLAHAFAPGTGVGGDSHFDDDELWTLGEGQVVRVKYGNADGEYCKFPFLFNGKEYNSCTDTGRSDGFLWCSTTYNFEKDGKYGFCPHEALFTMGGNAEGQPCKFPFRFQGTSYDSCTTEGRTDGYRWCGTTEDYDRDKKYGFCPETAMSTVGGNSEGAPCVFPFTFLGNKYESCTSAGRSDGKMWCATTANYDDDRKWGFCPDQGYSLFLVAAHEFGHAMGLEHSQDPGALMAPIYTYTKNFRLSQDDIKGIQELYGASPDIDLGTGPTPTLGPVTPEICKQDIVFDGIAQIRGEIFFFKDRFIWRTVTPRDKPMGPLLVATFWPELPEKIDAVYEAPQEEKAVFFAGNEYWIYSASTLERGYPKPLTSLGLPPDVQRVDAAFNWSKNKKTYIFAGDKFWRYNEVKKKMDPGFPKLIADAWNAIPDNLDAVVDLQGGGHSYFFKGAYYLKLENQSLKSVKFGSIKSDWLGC
Chain of Stromelysin-1 (P08254 whole entry): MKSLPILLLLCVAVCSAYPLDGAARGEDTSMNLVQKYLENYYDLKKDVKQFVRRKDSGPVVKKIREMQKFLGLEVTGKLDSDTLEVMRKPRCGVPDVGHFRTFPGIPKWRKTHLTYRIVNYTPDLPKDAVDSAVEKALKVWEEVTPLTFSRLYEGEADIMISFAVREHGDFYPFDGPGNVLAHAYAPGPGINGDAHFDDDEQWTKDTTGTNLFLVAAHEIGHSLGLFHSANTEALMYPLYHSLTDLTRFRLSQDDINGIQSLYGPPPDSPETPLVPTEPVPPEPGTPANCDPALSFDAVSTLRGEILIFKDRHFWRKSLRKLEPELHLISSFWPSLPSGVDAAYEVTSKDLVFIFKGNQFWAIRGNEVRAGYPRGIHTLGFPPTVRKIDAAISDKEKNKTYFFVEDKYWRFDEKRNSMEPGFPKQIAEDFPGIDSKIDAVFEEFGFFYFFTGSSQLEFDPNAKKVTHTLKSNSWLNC

Row | Ki [1] [nM] | Ki (Stromelysin-1) [nM] | Ki (Interstitial collagenase) [nM] | SMILES
1 | 560 | 850 | > 10000 | CCCCCCCCCC[C@H](N[C@H](C)C(=O)O)C(=O)N[C@@H](CC(C)C)C(=O)Nc1ccccc1
2 | 200 |  | 760 | CC(C)C[C@H](NC(=O)[C@H](CCc1ccccc1)N[C@H](C)C(=O)O)C(=O)Nc1ccccc1 [L-696418]
3 | 500 | 240 | > 10000 | CC(C)C[C@H](NC(=O)[C@H](CCCCCCCCCN)N[C@H](C)C(=O)O)C(=O)Nc1ccccc1
4 | 340 | 570 | > 10000 | CCCCCCCC[C@H](N[C@H](C)C(=O)O)C(=O)N[C@@H](CC(C)C)C(=O)Nc1ccccc1
5 | 120 | 1600 | > 10000 | CCCCCCCC[C@H](N[C@H](C)C(=O)O)C(=O)N[C@@H](CCCN=C(N)N)C(=O)Nc1ccccc1
6 | 110 | 370 | > 10000 | C[C@@H](N[C@@H](CCCCCCCCCN)C(=O)N[C@@H](CCCN=C(N)N)C(=O)Nc1ccccc1)C(=O)O
